Laboratory results published in patent publication US6667329B1, “Agents with antidepressant action, containing pramipexol and second antidepressant” (Boehringer Ingelheim Pharma GmbH & Co. KG, priority 1998, dated 2003).

System: rats
Assay: forced swimming test in rats
Conditions: series Pramipexole + amitriptyline
Source text: The test can be carried out as follows for each of the combinations of active substances tested.

CN(C)CCC=C1c2ccccc2CCc2ccccc21 [Amitriptyline]
Immobility time: 174.6 ± 9.2 s

CCCNC1CCc2nc(N)sc2C1.Cl.Cl (centres unmarked) [Pramipexole, 2-amino-6-n-propylamino4,5,6,7-tetrahydrobenzo-thiazole-dihydrochloride]
Immobility time: 164.3 ± 9.8 s
